Laboratory results reported in patent US7271144B2, “Therapeutic fibrin-derived peptides and uses thereof” (Fibrex Medical Research & Development GmbH, priority 2000, dated 2007).
Where no end group is shown, it is not given here.

How the values were obtained:
[1] = tested on: human skin transplanted onto the backs of SCID mice, human lymphocytes injected; assay: HU-SCID mouse model: inflammatory sites in transplanted human skin; format: in vivo; settings: for number of inflammatory sites: Example 3, 100 μg alone, tail vein, mean +/- SD; for number of inflammatory sites / inflammatory sites: 24 hours; for inflammatory sites: Examples 4-7, 100 μg of peptide + 100 μg of human NDSK-II
Method: Human skin was transplanted onto the backs of SCID mice, and two weeks later human lymphocytes were injected into the peritoneum. The proceedings were according to Petzelbauer et al. (J. Invest. Dermatol. 1996, 107; 576-581). Then, fifteen mice thus prepared were injected in their tail veins with the following:
Twenty-four hours later, the human skin was removed and the number of inflammatory sites, expressed in cells per 0.3 mm^2, was evaluated and the mean value was determined with a standard deviation.

[2] = tested on: peripheral mononuclear blood cells (PBMC); assay: Adhesion and transmigration of PBMC on HUVEC on a collagen matrix; format: cell-based, human; settings: for adhesion / migration / migration (migrated cells) / adhesion (adherent cells): PBMC; for conclusion: blocking of NDSK-II-induced PBMC adhesion/migration: Examples 9 and 10, with 100 μg NDSK-II; for migration (migrated cells) / adhesion (adherent cells): Example 8, 12 h
Method: (§1) Endothelial cells from human umbilical veins (HUVEC) were marked with a red fluorescent dye (Cell Tracker Orange, 1 μl/ml, Molecular Probes, Eugene, Oreg.) and were dispersed on a collagen matrix (Collaborative Biomedical Products, Bedford, Mass.). Upon confluence of the endothelial cells, peripheral mononuclear blood cells (PBMC) (10^5 cells per 25 mm^2) marked with a green fluorescent dye (Cell Tracker Green, 1 μl/ml, Molecular Probes of Messrs. Eugene, Origon) were superimposed. Thereafter, the cells were incubated at 37° C. for twelve hours.
(§2) Adhering cells that had transmigrated into the gel were photographed with a laser-scan microscope, were converted into pixels and were evaluated by means of an “NIH image” according to Gröger et al. (J. Immunol. Method 1999; 222: 101-109).
(§3) It was feasible to determine the number of adherent cells per 0.1 mm^2 such as mentioned under “adhesion”. It was feasible to determine the number of migrated cells per 0.04 mm^3 such as mentioned under “migration”. The mean value of three times three trials was evaluated together with the standard deviation.
100 μg of NDSK-II and Bbeta or Bbeta randomized were added to the collagen matrix according to Example 8 comprising the suspension of PBMC, and further proceedings were in accordance with Example 8.
100 μg of NDSK-II and Aalpha or Aalpha randomized were added to the collagen matrix according to Example 8 comprising the suspension of PBMC, and further proceedings were in accordance with Example 8.

cardiac muscle = assay: Rat cardiac artery occlusion / reperfusion, infarct planimetry
monocytes = assay: Adhesion and transmigration of pure monocytes on HUVEC on a collagen matrix; format: cell-based, human
Method: as §1, §2, §3
The proceedings were in accordance with Example 11, except for pure monocytes being used instead of lymphocytes. 100 μg of NDSK-uPA or 100 μg of NDSK-II, respectively, was added to peptide Aalpha, randomized Aalpha, Bbeta or randomized Bbeta.
The proceedings were in accordance with Example 12, with pure monocytes being used. […] of NDSK-uPA or 100 μg of NDSK-II, respectively, was added to the short peptide salts Aalpha Gly Pro Arg (Pro)—NH2 acetate (Aalpha derivative) or Bbeta Gly His Arg Pro-OH acetate (Bbeta derivative).

lymphocytes = assay: Adhesion and transmigration of pure lymphocytes on HUVEC on a collagen matrix; format: cell-based, human; settings: for adhesion / migration: lymphocytes
Method: as §1, §2, §3
Since PBMC substantially consists of a mixture of lymphocytes and monocytes, pure lymphocytes instead of PBMC (as in Examples 8-10) were used in Example 11.
100 μg of NDSK-uPA or 100 μg of NDSK-II, respectively, and Aalpha or Bbeta, respectively, were added to the collagen matrix according to Example 8 comprising endothelial cells and lymphocytes.
The proceedings were in accordance with Example 11, with pure lymphocytes being used. 100 μg of NDSK-uPA or 100 μg of NDSK-II, respectively, was added to the short peptide salts derived from Aalpha Gly Pro Arg (Pro)—NH2 acetate (Aalpha derivative) or derived from Bbeta Gly His Arg Pro-OH acetate (Bbeta derivative).

[3] = Example 9, 10 μg of peptide + 100 μg NDSK-II
[4] = Example 9, 100 μg of peptide + 100 μg NDSK-II
[5] = Example 9, 1000 μg of peptide + 100 μg NDSK-II
[6] = rat, 800 μg/kg intravenously at reperfusion after 25 min occlusion, 2 hours
[7] = Example 12, 100 μg of peptide + 100 μg NDSK-II
[8] = Example 12, 100 μg of peptide + 100 μg NDSK-uPA
[9] = Example 12, substance alone, 100 μg
[10] = Example 11, 100 μg of peptide + 100 μg NDSK-II
[11] = Example 11, 100 μg of peptide + 100 μg NDSK-uPA
[12] = Example 11, substance alone, 100 μg
[13] = Example 10, 10 μg of peptide + 100 μg NDSK-II
[14] = Example 10, 100 μg of peptide + 100 μg NDSK-II
[15] = Example 10, 1000 μg of peptide + 100 μg NDSK-II
[16] = Example 14, 100 μg of short peptide + 100 μg NDSK-II
[17] = Example 14, 100 μg of short peptide + 100 mg NDSK-uPA
[18] = Example 13, 100 μg of short peptide + 100 μg NDSK-II
[19] = Example 13, 100 μg of short peptide + 100 μg NDSK-uPA
[20] = Example 13, substance alone, 100 μg

With “GHRPLDKKREEAPSLRPAPPPISGGGYR [amino acids 1 to 28 of the beta chain of the fibrin]” the “number of inflammatory sites” value [1] was 6+/−1.1 cells per 0.3 mm^2, the inflammatory sites [1] was 14+/−2 per 0.3 mm^2 and the “conclusion: blocking of lymphocytic inflammation” value ([1]; Examples 4 to 7, with 100 μg NDSK-II) was “blocks lymphocytic inflammation”. The adhesion [2, 3] was 63 +/− 33 cells per 0.1 mm^2, the migration [2, 3] was 7 +/− 4 cells per 0.04 mm^3 and the adhesion [2, 4] was 47 +/− 34 cells per 0.1 mm^2. The migration [2, 4] was 5 +/− 4 cells per 0.04 mm^3, the adhesion [2, 5] was 52 +/− 27 cells per 0.1 mm^2 and the migration [2, 5] was 10 +/− 6 cells per 0.04 mm^3. The “conclusion: blocking of NDSK-II-induced PBMC adhesion/migration” value [2] was “blocks inflammations”, the “cardiac muscle threatened because of the vascular occlusion” value (cardiac muscle; [6]) was 60% and the “endangered tissue that was dead” value (cardiac muscle; [6]) was 29%. For the same molecule, the “reduction of dead tissue” value (cardiac muscle; versus reference rats, p<0.05) was 37%, the adhesion (monocytes; [7]) was 70 +/− 7 cells per 0.1 mm^2 and the migration (monocytes; [7]) was 7 +/− 5 cells per 0.04 mm^3. For the same molecule, the adhesion (monocytes; [8]) was 61 +/− 11 cells per 0.1 mm^2, the migration (monocytes; [8]) was 8 +/− 3 cells per 0.04 mm^3 and the adhesion (monocytes; [9]) was 59 +/− 7 cells per 0.1 mm^2. The migration (monocytes; [9]) was 5 +/− 1 cells per 0.04 mm^3, the “conclusion: blocking of lymphocytic adhesion and migration induced by NDSK-II and NDSK-uPA” value (lymphocytes; Example 11) was “completely blocks” and the adhesion (lymphocytes; [10]) was 74 +/− 8 cells per 0.1 mm^2. The migration (lymphocytes; [10]) was 17 +/− 3 cells per 0.04 mm^3, the adhesion (lymphocytes; [11]) was 74 +/− 8 cells per 0.1 mm^2 and the migration (lymphocytes; [11]) was 19 +/− 2 cells per 0.04 mm^3. The adhesion (lymphocytes; [12]) was 58 +/− 18 cells per 0.1 mm^2 and the migration (lymphocytes; [12]) was 14 +/− 1 cells per 0.04 mm^3.

With “GPRVVERHQSACKDSDWPFCSDEDWNYK (cysteine pairing not given here) [amino acids 1 to 28 of the alpha chain of the fibrin]” the “number of inflammatory sites” value [1] was 4+/−1.1 cells per 0.3 mm^2, the inflammatory sites [1] was 21+/−2.2 per 0.3 mm^2 and the adhesion [2, 13] was 69 +/− 12 cells per 0.1 mm^2. For the same molecule, the migration [2, 13] was 21 +/− 4 cells per 0.04 mm^3, the adhesion [2, 14] was 73 +/− 13 cells per 0.1 mm^2 and the migration [2, 14] was 15 +/− 6 cells per 0.04 mm^3. For the same molecule, the adhesion [2, 15] was 70 +/− 6 cells per 0.1 mm^2, the migration [2, 15] was 13 +/− 5 cells per 0.04 mm^3 and the “conclusion: blocking of NDSK-II-induced PBMC adhesion/migration” value [2] was “blocks the migration of PBMC only partially”. The adhesion (monocytes; [7]) was 68 +/− 10 cells per 0.1 mm^2, the migration (monocytes; [7]) was 9 +/− 6 cells per 0.04 mm^3 and the adhesion (monocytes; [8]) was 62 +/− 4 cells per 0.1 mm^2. For the same molecule, the migration (monocytes; [8]) was 8 +/− 5 cells per 0.04 mm^3, the adhesion (monocytes; [9]) was 59 +/− 6 cells per 0.1 mm^2 and the migration (monocytes; [9]) was 5 +/− 1 cells per 0.04 mm^3. For the same molecule, the “conclusion: blocking of lymphocytic adhesion and migration induced by NDSK-II and NDSK-uPA” value (lymphocytes; Example 11) was “no blocking activity”, the adhesion (lymphocytes; [10]) was 131 +/− 4 cells per 0.1 mm^2 and the migration (lymphocytes; [10]) was 44 +/− 4 cells per 0.04 mm^3. For the same molecule, the adhesion (lymphocytes; [11]) was 131 +/− 4 cells per 0.1 mm^2, the migration (lymphocytes; [11]) was 40 +/− 3 cells per 0.04 mm^3 and the adhesion (lymphocytes; [12]) was 77 +/− 4 cells per 0.1 mm^2. The migration (lymphocytes; [12]) was 18 +/− 1 cells per 0.04 mm^3.

In the case of “Gly His Arg Pro-OH acetate (GHRP-OH; also: acetate salt) [Bbeta derivative, short peptide salt derived from Bbeta]”, the adhesion (monocytes; [16]) is reported as 68 +/− 7 cells per 0.1 mm^2, the migration (monocytes; [16]) is reported as 8 +/− 4 cells per 0.04 mm^3 and the adhesion (monocytes; [17]) is reported as 61 +/− 11 cells per 0.1 mm^2. For the same molecule, the migration (monocytes; [17]) was 8 +/− 3 cells per 0.04 mm^3, the adhesion (monocytes; Example 14, substance alone) was 52 +/− 7 cells per 0.1 mm^2 and the migration (monocytes; Example 14, substance alone) was 6 +/− 1 cells per 0.04 mm^3. The adhesion (lymphocytes; [18]) was 69 +/− 7 cells per 0.1 mm^2, the migration (lymphocytes; [18]) was 14 +/− 5 cells per 0.04 mm^3 and the adhesion (lymphocytes; [19]) was 70 +/− 8 cells per 0.1 mm^2. The migration (lymphocytes; [19]) was 16 +/− 3 cells per 0.04 mm^3, the adhesion (lymphocytes; [20]) was 58 +/− 10 cells per 0.1 mm^2 and the migration (lymphocytes; [20]) was 12 +/− 9 cells per 0.04 mm^3.

With “Gly Pro Arg (Pro)—NH2 acetate [Aalpha derivative]” the adhesion (monocytes; [16]) was 64 +/− 11 cells per 0.1 mm^2, the migration (monocytes; [16]) was 8 +/− 2 cells per 0.04 mm^3 and the adhesion (monocytes; [17]) was 60 +/− 5 cells per 0.1 mm^2. For the same molecule, the migration (monocytes; [17]) was 7 +/− 6 cells per 0.04 mm^3, the adhesion (monocytes; Example 14, substance alone) was 50 +/− 5 cells per 0.1 mm^2 and the migration (monocytes; Example 14, substance alone) was 4 +/− 4 cells per 0.04 mm^3. For the same molecule, the adhesion (lymphocytes; [18]) was 131 +/− 7 cells per 0.1 mm^2, the migration (lymphocytes; [18]) was 49 +/− 6 cells per 0.04 mm^3 and the adhesion (lymphocytes; [19]) was 134 +/− 4 cells per 0.1 mm^2. The migration (lymphocytes; [19]) was 48 +/− 5 cells per 0.04 mm^3, the adhesion (lymphocytes; [20]) was 77 +/− 4 cells per 0.1 mm^2 and the migration (lymphocytes; [20]) was 18 +/− 1 cells per 0.04 mm^3.

B1: FCB-2: negative control; 43 kD fibrinogen cleavage product, Aalpha-chain 148-208, Bbeta-chain 191-305 and gamma-chain 95-265 (protein)
chain 1: KVQHIQLLQKNVRAQLVDMKRLEVDIDIKIRSCRGSCSRALAREVDLKDYEDQQKQLEQVI
chain 2: IPTNLRVLRSILENLRSKIQKLESDVSAQMEYCRTPCTVSCNIPVVSGKECEEIIRKGGETSEMYLIQPDSSVKPYRVYCDMNTENGGWTVIQNRQDGSVDFGRKWDPYKQGFGN
chain 3: NPDESSKPNMIDAATLKSRKMLEEIMKYEASILTHDSSIRYLQEIYNSNNQKIVNLKEKVAQLEAQCQEPCKDTVQIHDITGKDCQDIANKGAKQSGLYFIKPLKANQQFLVYCEIDGSGNGWTVFQKRLDGSVDFKKNWIQYKEGFGHLSPTGTTEFWLGNEKIHLISTQ
For B1, the “number of inflammatory sites” value [1] was 9+/−2.1 cells per 0.3 mm^2, the “migration (migrated cells)” value ([2]; 0.1 μg/ml) was 6 +/− 4 cells per 0.04 mm^3 and the “adhesion (adherent cells)” value ([2]; 0.1 μg/ml, mean +/- SD) was 30 +/− 26 cells per 0.1 mm^2. The “adhesion (adherent cells)” value ([2]; 1.0 μg/ml) was 10 +/− 10 cells per 0.1 mm^2, the “migration (migrated cells)” value ([2]; 1.0 μg/ml) was 3 +/− 2 cells per 0.04 mm^3 and the “adhesion (adherent cells)” value ([2]; 10.0 μg/ml) was 21 +/− 7 cells per 0.1 mm^2. For the same molecule, the “migration (migrated cells)” value ([2]; 10.0 μg/ml) was 5 +/− 4 cells per 0.04 mm^3.

B2: NDSK: 63 kD fibrinogen fragment, N-terminal disulfide knot; Aalpha-chain 1-51, Bbeta-chain 1–118 and gamma-chain 1-78 (protein)
chain 1: ADSGEGDFLAEGGGVRGPRVVERHQSACKDSD
chain 2: QGVNDNEEGFFSARGHRPLDKKREEAPSLRPAPPPISGGGYRARPAKAAATQKKVERKAPDAGGCLHADPDLGVLCPTGCQLQEALLQ
chain 3: YVATRDNCCILDERFGSYCPTTCGIADFLSTYQTKVDKDLQSLEDILHQVEN
With B2 the “migration (migrated cells)” value ([2]; 0.1 μg/ml) was 6 +/− 3 cells per 0.04 mm^3, the “adhesion (adherent cells)” value ([2]; 0.1 μg/ml, mean +/- SD) was 31 +/− 18 cells per 0.1 mm^2 and the “adhesion (adherent cells)” value ([2]; 1.0 μg/ml) was 35 +/− 18 cells per 0.1 mm^2. The “migration (migrated cells)” value ([2]; 1.0 μg/ml) was 5 +/− 2 cells per 0.04 mm^3, the “adhesion (adherent cells)” value ([2]; 10.0 μg/ml) was 36 +/− 24 cells per 0.1 mm^2 and the “migration (migrated cells)” value ([2]; 10.0 μg/ml) was 6 +/− 3 cells per 0.04 mm^3.
